# Test results taken from patent US20170021023A1 (RESDEVCO RESEARCH AND DEVELOPMENT CO. LTD., priority 2005, published 2017).
# Columns and labels:
# [1] = system: epithelial conical cells; assay: Rabbit eye drop treatment for 3 months, electron microscopy of epithelial cells; format: in vivo, rabbits; conditions: preservatives such as benzalkonium chloride, cetrimonium bromide, sodium ethylene diamine tetraacetate
# Description: 3 rabbits were treated for 3 months twice daily with eye drops, adjusted to pH 7.0. The average cross section of the epithelial conical cells and the percentage of damaged cells were evaluated by electron microscopy.
# [2] = system: dry eye patients; assay: Fluorescein Break Up Time (BUT) study in dry eye patients; format: in vivo, human; conditions: concentration of 0.002%
# Excerpt: The advantages resulting from the addition of a surface active agent include a decrease in the surface tension of the aqueous solution, thereby increasing the spread. […] It is accepted that a BUT of 10 sec. or less indicates dry eye syndrome; see Example 11 below.
compound,measurement,setting,value
OCC(O)CO [glycerol],Effect on conical cell damage caused by preservatives,[1],counteracts conical cell damage
polysorbate 80,Effect on diminished Break Up Time (BUT),[2],increases the diminished Break Up Time (BUT)
